Data: the kinase profiling compilation of Christmann-Franck et al. (2016)

What was measured:
Experiment in all cases: KINOMEscan competition binding
Settings in all cases: compound 10.0 µM
AURKA (human) = AURKA (human) (UniProt O14965)
BMP2K (human) = BMP2K (human) (UniProt Q9NSY1)
BMPR1B (human) = BMPR1B (human) (UniProt O00238)
CASK (human) = CASK (human) (UniProt O14936)
CDK17 (human) = CDK17 (human) (UniProt Q00537)
CDK3 (human) = CDK3 (human) (UniProt Q00526)
CRK2 (P.falciparum) = CRK2 (P.falciparum) (UniProt P61075)
CSNK1G1 (human) = CSNK1G1 (human) (UniProt Q9HCP0)
[1] = test system: EGFR (human), P00533 [A750P; 747-749 del]
EIF2AK2 (human) = EIF2AK2 (human) (UniProt P19525)
EPHA8 (human) = EPHA8 (human) (UniProt P29322)
EPHB3 (human) = EPHB3 (human) (UniProt P54753)
FGR (human) = FGR (human) (UniProt P09769)
[2] = test system: FLT3 (human), P36888 [D835Y]
FRK (human) = FRK (human) (UniProt P42685)
GSK3B (human) = GSK3B (human) (UniProt P49841)
HIPK3 (human) = HIPK3 (human) (UniProt Q9H422)
IGF1R (human) = IGF1R (human) (UniProt P08069)
IRAK1 (human) = IRAK1 (human) (UniProt P51617)
LATS1 (human) = LATS1 (human) (UniProt O95835)
LATS2 (human) = LATS2 (human) (UniProt Q9NRM7)
MAP4K5 (human) = MAP4K5 (human) (UniProt Q9Y4K4)
MAPK8 (human) = MAPK8 (human) (UniProt P45983)
MARK4 (human) = MARK4 (human) (UniProt Q96L34)
MINK1 (human) = MINK1 (human) (UniProt Q8N4C8)
MYLK (human) = MYLK (human) (UniProt Q15746)
MYLK4 (human) = MYLK4 (human) (UniProt Q86YV6)
NEK11 (human) = NEK11 (human) (UniProt Q8NG66)
NEK2 (human) = NEK2 (human) (UniProt P51955)
NEK4 (human) = NEK4 (human) (UniProt P51957)
NTRK2 (human) = NTRK2 (human) (UniProt Q16620)
PAK1 (human) = PAK1 (human) (UniProt Q13153)
[3] = test system: PIK3CA (human), P42336 [I800L]
[4] = test system: PIK3CA (human), P42336 [Q546K]
STK17A (human) = STK17A (human) (UniProt Q9UEE5)
TEK (human) = TEK (human) (UniProt Q02763)
TESK1 (human) = TESK1 (human) (UniProt Q15569)
TIE1 (human) = TIE1 (human) (UniProt P35590)
TTK (human) = TTK (human) (UniProt P33981)
ZAP70 (human) = ZAP70 (human) (UniProt P43403)
RPS6KB1 (human) = RPS6KB1 (human) (UniProt P23443)
Chain of RPS6KB1 (human) (P23443 whole entry, looked up): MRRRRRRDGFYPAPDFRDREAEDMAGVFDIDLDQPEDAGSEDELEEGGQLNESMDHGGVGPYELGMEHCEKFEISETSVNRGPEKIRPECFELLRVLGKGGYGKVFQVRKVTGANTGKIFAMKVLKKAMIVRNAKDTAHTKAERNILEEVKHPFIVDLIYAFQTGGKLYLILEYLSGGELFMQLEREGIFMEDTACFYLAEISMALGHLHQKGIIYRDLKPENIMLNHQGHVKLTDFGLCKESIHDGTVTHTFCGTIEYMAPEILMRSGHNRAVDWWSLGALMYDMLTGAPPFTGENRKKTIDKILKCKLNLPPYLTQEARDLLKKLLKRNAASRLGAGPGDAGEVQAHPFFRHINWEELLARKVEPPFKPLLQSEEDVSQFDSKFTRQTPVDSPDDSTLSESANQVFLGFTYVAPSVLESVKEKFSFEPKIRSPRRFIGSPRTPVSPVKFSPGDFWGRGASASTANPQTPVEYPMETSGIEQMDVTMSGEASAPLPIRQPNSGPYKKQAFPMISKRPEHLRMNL

Chain of EPHA8 (human) (P29322 whole entry, looked up): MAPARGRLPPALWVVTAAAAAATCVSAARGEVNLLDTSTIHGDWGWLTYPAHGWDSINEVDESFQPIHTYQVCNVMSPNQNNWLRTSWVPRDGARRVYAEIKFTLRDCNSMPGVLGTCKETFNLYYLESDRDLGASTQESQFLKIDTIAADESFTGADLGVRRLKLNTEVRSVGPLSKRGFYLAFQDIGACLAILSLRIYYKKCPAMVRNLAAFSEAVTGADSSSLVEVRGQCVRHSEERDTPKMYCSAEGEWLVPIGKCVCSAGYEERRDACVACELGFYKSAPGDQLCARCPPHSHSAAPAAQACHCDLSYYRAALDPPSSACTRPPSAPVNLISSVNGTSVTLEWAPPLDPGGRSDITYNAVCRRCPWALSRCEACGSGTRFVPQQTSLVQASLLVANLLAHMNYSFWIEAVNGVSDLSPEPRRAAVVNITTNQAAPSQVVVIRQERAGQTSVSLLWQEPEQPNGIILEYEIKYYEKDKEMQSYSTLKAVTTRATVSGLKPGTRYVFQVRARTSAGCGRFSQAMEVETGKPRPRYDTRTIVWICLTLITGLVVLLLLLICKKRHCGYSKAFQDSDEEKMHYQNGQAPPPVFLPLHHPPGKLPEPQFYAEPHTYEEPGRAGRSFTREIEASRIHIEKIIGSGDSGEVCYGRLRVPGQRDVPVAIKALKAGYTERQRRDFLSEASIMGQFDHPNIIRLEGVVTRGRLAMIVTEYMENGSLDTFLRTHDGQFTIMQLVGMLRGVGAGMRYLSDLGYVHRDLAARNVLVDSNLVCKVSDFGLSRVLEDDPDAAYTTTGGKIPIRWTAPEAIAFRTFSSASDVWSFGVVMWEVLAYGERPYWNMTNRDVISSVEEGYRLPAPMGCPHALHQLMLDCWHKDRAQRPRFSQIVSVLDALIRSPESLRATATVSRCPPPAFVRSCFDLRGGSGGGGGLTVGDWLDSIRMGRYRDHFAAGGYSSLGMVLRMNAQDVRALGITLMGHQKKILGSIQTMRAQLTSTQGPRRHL
Chain of CRK2 (P.falciparum) (P61075 whole entry, looked up): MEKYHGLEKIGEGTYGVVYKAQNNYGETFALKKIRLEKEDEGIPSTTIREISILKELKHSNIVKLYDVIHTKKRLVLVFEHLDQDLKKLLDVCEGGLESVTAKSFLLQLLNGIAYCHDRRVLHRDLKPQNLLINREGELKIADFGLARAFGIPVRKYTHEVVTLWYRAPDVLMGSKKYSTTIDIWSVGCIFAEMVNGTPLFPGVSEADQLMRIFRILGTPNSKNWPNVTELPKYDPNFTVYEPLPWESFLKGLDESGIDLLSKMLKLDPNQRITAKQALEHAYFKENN
Chain of GSK3B (human) (P49841 whole entry, looked up): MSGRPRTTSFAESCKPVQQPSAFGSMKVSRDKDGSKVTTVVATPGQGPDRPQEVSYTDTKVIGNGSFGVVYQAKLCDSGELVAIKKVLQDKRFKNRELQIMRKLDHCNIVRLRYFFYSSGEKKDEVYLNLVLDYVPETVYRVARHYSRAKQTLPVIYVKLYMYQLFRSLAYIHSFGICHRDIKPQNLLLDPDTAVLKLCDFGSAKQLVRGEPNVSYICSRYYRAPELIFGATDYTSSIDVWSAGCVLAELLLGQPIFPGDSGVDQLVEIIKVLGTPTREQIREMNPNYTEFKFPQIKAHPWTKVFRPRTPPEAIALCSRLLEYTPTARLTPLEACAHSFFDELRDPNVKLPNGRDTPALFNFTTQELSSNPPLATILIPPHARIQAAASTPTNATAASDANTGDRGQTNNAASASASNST
Chain of NEK2 (human) (P51955 whole entry, looked up): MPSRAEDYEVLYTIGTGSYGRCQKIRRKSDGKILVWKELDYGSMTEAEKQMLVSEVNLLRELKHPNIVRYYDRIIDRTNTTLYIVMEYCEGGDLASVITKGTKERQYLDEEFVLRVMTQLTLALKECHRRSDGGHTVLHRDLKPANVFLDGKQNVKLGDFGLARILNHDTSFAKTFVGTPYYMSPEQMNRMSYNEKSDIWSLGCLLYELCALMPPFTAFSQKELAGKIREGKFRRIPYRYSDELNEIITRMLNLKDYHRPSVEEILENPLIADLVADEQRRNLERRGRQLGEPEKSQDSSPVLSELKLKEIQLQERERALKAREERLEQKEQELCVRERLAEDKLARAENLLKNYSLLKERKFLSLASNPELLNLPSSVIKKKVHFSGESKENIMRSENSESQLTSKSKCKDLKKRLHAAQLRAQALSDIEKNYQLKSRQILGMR
Chain of MINK1 (human) (Q8N4C8 whole entry, looked up): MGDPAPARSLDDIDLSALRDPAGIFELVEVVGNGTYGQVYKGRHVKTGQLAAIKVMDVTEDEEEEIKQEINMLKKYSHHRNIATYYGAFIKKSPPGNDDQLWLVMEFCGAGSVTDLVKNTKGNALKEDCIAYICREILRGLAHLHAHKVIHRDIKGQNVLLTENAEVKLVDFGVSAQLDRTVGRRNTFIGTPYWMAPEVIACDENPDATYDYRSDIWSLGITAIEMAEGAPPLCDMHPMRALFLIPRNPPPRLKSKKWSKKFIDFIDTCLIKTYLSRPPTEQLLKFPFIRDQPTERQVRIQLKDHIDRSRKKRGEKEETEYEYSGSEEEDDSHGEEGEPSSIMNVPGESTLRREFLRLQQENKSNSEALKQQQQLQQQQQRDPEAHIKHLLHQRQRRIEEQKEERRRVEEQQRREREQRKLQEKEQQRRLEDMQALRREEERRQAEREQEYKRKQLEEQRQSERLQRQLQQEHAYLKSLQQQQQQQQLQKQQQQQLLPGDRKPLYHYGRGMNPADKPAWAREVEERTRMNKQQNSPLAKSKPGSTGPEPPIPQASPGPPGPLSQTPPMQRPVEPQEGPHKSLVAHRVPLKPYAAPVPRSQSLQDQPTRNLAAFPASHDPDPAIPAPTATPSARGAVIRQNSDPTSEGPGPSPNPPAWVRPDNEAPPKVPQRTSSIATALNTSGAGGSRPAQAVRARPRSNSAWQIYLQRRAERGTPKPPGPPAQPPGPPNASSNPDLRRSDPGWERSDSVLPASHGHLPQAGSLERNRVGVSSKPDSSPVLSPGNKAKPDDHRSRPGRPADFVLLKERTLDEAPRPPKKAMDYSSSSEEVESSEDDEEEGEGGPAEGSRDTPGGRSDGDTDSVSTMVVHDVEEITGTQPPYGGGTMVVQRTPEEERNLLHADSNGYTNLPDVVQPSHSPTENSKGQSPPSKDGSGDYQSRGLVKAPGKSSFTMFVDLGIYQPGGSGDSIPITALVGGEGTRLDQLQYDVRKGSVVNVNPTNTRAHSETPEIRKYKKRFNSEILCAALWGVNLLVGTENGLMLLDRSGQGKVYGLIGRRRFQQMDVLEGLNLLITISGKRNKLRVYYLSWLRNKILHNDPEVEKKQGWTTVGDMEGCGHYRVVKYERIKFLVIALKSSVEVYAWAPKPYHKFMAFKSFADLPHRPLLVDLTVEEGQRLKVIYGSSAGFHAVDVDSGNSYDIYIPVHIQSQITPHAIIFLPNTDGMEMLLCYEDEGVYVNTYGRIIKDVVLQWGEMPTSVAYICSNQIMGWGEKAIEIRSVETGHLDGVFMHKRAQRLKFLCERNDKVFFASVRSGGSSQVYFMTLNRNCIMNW
Chain of FRK (human) (P42685 whole entry, looked up): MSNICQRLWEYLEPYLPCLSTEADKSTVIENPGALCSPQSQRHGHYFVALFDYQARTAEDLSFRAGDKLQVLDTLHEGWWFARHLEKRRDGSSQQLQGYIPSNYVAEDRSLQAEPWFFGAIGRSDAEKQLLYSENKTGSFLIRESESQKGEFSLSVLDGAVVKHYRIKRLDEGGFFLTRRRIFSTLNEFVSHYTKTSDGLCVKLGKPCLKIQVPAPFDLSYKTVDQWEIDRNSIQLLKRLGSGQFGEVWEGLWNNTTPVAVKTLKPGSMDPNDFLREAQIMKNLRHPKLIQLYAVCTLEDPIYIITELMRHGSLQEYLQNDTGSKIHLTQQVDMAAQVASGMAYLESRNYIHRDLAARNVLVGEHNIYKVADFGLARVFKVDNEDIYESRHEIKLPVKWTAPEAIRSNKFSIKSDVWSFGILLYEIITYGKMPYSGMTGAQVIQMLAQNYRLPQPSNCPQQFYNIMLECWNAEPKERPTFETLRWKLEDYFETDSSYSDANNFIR
Chain of STK17A (human) (Q9UEE5 whole entry, looked up): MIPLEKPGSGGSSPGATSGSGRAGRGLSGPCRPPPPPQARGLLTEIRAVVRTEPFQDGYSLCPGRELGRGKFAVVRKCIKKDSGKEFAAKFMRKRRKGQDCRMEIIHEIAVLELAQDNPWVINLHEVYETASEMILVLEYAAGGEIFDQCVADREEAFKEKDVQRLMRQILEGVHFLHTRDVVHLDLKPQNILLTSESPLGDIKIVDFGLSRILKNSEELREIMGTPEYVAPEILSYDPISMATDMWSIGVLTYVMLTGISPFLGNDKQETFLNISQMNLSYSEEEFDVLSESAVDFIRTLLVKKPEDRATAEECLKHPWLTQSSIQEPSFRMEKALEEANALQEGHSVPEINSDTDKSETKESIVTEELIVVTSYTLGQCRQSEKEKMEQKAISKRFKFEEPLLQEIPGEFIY

CCC(=O)N1CCN(c2ccc(-n3c(=O)ccc4cnc5ccc(-c6cnc7ccccc7c6)cc5c43)cc2C(F)(F)F)CC1
kinase still bound, per cent of control (AURKA (human)): 100%
kinase still bound, per cent of control (BMP2K (human)): 100%
kinase still bound, per cent of control (BMPR1B (human)): 100%
kinase still bound, per cent of control (CASK (human)): 100%
per cent of control (CDK17 (human)): 97%
per cent of control (CDK3 (human)): 100%
kinase still bound, per cent of control (CRK2 (P.falciparum)): 97%
kinase still bound, per cent of control (CSNK1G1 (human)): 100%
kinase still bound, per cent of control [1]: 100%
kinase still bound, per cent of control (EIF2AK2 (human)): 88%
kinase still bound, per cent of control (EPHA8 (human)): 71%
kinase still bound, per cent of control (EPHB3 (human)): 85%
kinase still bound, per cent of control (FGR (human)): 78%
kinase still bound, per cent of control [2]: 16%
kinase still bound, per cent of control (FRK (human)): 60%
kinase still bound, per cent of control (GSK3B (human)): 100%
kinase still bound, per cent of control (HIPK3 (human)): 86%
per cent of control (IGF1R (human)): 94%
kinase still bound, per cent of control (IRAK1 (human)): 100%
kinase still bound, per cent of control (LATS1 (human)): 100%
kinase still bound, per cent of control (LATS2 (human)): 100%
kinase still bound, per cent of control (MAP4K5 (human)): 8.1%
kinase still bound, per cent of control (MAPK8 (human)): 22%
kinase still bound, per cent of control (MARK4 (human)): 100%
kinase still bound, per cent of control (MINK1 (human)): 19%
per cent of control (MYLK (human)): 87%
kinase still bound, per cent of control (MYLK4 (human)): 83%
kinase still bound, per cent of control (NEK11 (human)): 65%
kinase still bound, per cent of control (NEK2 (human)): 90%
kinase still bound, per cent of control (NEK4 (human)): 86%
kinase still bound, per cent of control (NTRK2 (human)): 81%
kinase still bound, per cent of control (PAK1 (human)): 73%
kinase still bound, per cent of control [3]: 0%
kinase still bound, per cent of control [4]: 6.8%
kinase still bound, per cent of control (STK17A (human)): 93%
kinase still bound, per cent of control (TEK (human)): 19%
kinase still bound, per cent of control (TESK1 (human)): 58%
kinase still bound, per cent of control (TIE1 (human)): 100%
kinase still bound, per cent of control (TTK (human)): 9.6%
kinase still bound, per cent of control (ZAP70 (human)): 100%

COC(=O)Nc1ccc(-c2nc(N3CCOCC3)c3cnn(C4CCN(C(=O)OC)CC4)c3n2)cc1
kinase still bound, per cent of control (AURKA (human)): 85%
kinase still bound, per cent of control (BMP2K (human)): 99%
kinase still bound, per cent of control (BMPR1B (human)): 78%
kinase still bound, per cent of control (CASK (human)): 100%
per cent of control (CDK17 (human)): 100%
per cent of control (CDK3 (human)): 100%
kinase still bound, per cent of control (CRK2 (P.falciparum)): 95%
kinase still bound, per cent of control (CSNK1G1 (human)): 100%
kinase still bound, per cent of control [1]: 88%
kinase still bound, per cent of control (EIF2AK2 (human)): 100%
kinase still bound, per cent of control (EPHA8 (human)): 97%
kinase still bound, per cent of control (EPHB3 (human)): 74%
kinase still bound, per cent of control (FGR (human)): 96%
kinase still bound, per cent of control [2]: 100%
kinase still bound, per cent of control (FRK (human)): 99%
kinase still bound, per cent of control (GSK3B (human)): 100%
kinase still bound, per cent of control (HIPK3 (human)): 72%
per cent of control (IGF1R (human)): 98%
kinase still bound, per cent of control (IRAK1 (human)): 100%
kinase still bound, per cent of control (LATS1 (human)): 100%
kinase still bound, per cent of control (LATS2 (human)): 86%
kinase still bound, per cent of control (MAP4K5 (human)): 100%
kinase still bound, per cent of control (MAPK8 (human)): 100%
kinase still bound, per cent of control (MARK4 (human)): 96%
kinase still bound, per cent of control (MINK1 (human)): 100%
per cent of control (MYLK (human)): 81%
kinase still bound, per cent of control (MYLK4 (human)): 99%
kinase still bound, per cent of control (NEK11 (human)): 85%
kinase still bound, per cent of control (NEK2 (human)): 100%
kinase still bound, per cent of control (NEK4 (human)): 90%
kinase still bound, per cent of control (NTRK2 (human)): 100%
kinase still bound, per cent of control (PAK1 (human)): 95%
kinase still bound, per cent of control [3]: 0.4%
kinase still bound, per cent of control [4]: 6.8%
kinase still bound, per cent of control (RPS6KB1 (human)): 86%
kinase still bound, per cent of control (STK17A (human)): 91%
kinase still bound, per cent of control (TEK (human)): 100%
kinase still bound, per cent of control (TESK1 (human)): 91%
kinase still bound, per cent of control (TIE1 (human)): 99%
kinase still bound, per cent of control (TTK (human)): 100%
kinase still bound, per cent of control (ZAP70 (human)): 98%

CC(C)n1nc(-c2cc3cc(O)ccc3[nH]2)c2c(N)ncnc21
kinase still bound, per cent of control (AURKA (human)): 100%
kinase still bound, per cent of control (BMP2K (human)): 33%
kinase still bound, per cent of control (BMPR1B (human)): 0.1%
per cent of control (CDK17 (human)): 100%
per cent of control (CDK3 (human)): 100%
kinase still bound, per cent of control (CRK2 (P.falciparum)): 93%
kinase still bound, per cent of control (EIF2AK2 (human)): 48%
kinase still bound, per cent of control (EPHA8 (human)): 1.2%
kinase still bound, per cent of control (EPHB3 (human)): 81%
kinase still bound, per cent of control (FGR (human)): 5.6%
kinase still bound, per cent of control [2]: 7%
kinase still bound, per cent of control (FRK (human)): 12%
kinase still bound, per cent of control (GSK3B (human)): 91%
kinase still bound, per cent of control (HIPK3 (human)): 0.9%
per cent of control (IGF1R (human)): 100%
kinase still bound, per cent of control (IRAK1 (human)): 25%
kinase still bound, per cent of control (LATS1 (human)): 55%
kinase still bound, per cent of control (LATS2 (human)): 41%
kinase still bound, per cent of control (MAP4K5 (human)): 72%
kinase still bound, per cent of control (MAPK8 (human)): 89%
kinase still bound, per cent of control (MARK4 (human)): 82%
kinase still bound, per cent of control (MINK1 (human)): 7.7%
per cent of control (MYLK (human)): 0.9%
kinase still bound, per cent of control (MYLK4 (human)): 43%
kinase still bound, per cent of control (NEK11 (human)): 74%
kinase still bound, per cent of control (NEK2 (human)): 75%
kinase still bound, per cent of control (NEK4 (human)): 90%
kinase still bound, per cent of control (PAK1 (human)): 52%
kinase still bound, per cent of control (RPS6KB1 (human)): 57%
kinase still bound, per cent of control (STK17A (human)): 81%
kinase still bound, per cent of control (TEK (human)): 21%
kinase still bound, per cent of control (TESK1 (human)): 17%
kinase still bound, per cent of control (TIE1 (human)): 49%
kinase still bound, per cent of control (TTK (human)): 9.2%
kinase still bound, per cent of control (ZAP70 (human)): 99%

COc1ccc(-c2ccc3c(N4CCOCC4)nc(N4C[C@@H](C)O[C@@H](C)C4)nc3n2)cc1CO
kinase still bound, per cent of control (AURKA (human)): 80%
kinase still bound, per cent of control (BMP2K (human)): 98%
kinase still bound, per cent of control (BMPR1B (human)): 99%
kinase still bound, per cent of control (CASK (human)): 100%
per cent of control (CDK17 (human)): 100%
per cent of control (CDK3 (human)): 100%
kinase still bound, per cent of control (CRK2 (P.falciparum)): 90%
kinase still bound, per cent of control (CSNK1G1 (human)): 94%
kinase still bound, per cent of control [1]: 100%
kinase still bound, per cent of control (EIF2AK2 (human)): 100%
kinase still bound, per cent of control (EPHA8 (human)): 80%
kinase still bound, per cent of control (EPHB3 (human)): 98%
kinase still bound, per cent of control (FGR (human)): 100%
kinase still bound, per cent of control [2]: 86%
kinase still bound, per cent of control (FRK (human)): 100%
kinase still bound, per cent of control (GSK3B (human)): 100%
kinase still bound, per cent of control (HIPK3 (human)): 76%
per cent of control (IGF1R (human)): 100%
kinase still bound, per cent of control (IRAK1 (human)): 100%
kinase still bound, per cent of control (LATS1 (human)): 96%
kinase still bound, per cent of control (LATS2 (human)): 89%
kinase still bound, per cent of control (MAP4K5 (human)): 96%
kinase still bound, per cent of control (MAPK8 (human)): 87%
kinase still bound, per cent of control (MARK4 (human)): 84%
kinase still bound, per cent of control (MINK1 (human)): 100%
per cent of control (MYLK (human)): 57%
kinase still bound, per cent of control (MYLK4 (human)): 92%
kinase still bound, per cent of control (NEK11 (human)): 72%
kinase still bound, per cent of control (NEK2 (human)): 100%
kinase still bound, per cent of control (NEK4 (human)): 76%
kinase still bound, per cent of control (NTRK2 (human)): 73%
kinase still bound, per cent of control (PAK1 (human)): 84%
kinase still bound, per cent of control [3]: 0%
kinase still bound, per cent of control [4]: 2.8%
kinase still bound, per cent of control (RPS6KB1 (human)): 100%
kinase still bound, per cent of control (STK17A (human)): 96%
kinase still bound, per cent of control (TEK (human)): 71%
kinase still bound, per cent of control (TESK1 (human)): 98%
kinase still bound, per cent of control (TIE1 (human)): 100%
kinase still bound, per cent of control (TTK (human)): 95%
kinase still bound, per cent of control (ZAP70 (human)): 83%
